According to US7872134B2, “2-{[2-(substituted amino)ethyl]sulfonyl}ethyl N,N-bis(2-chloroethyl)phosphorodiamidates” (Telik, Inc., priority 2007, dated 2011):

Assays:
[1] = tested on: DLD-1 (colorectal adenocarcinoma); experiment: Cytotoxicity/Growth Inhibition Assay (CellTiter-Glo); assay type: cell-based; conditions: Homo sapiens, 96 h, DLD-1 cells, hydrochloride salts, cultured 4 days
Procedure: The following examples illustrate the beneficial effect of the compounds of this invention against human cancer cell lines in vitro.
The human cancer cell line DLD-1 (colorectal adenocarcinoma) was obtained from the American Type Culture Collection, Manassas, Va., U.S.A. The CellTiter-Glo assay kit was obtained from Promega Corporation, Madison, Wis., U.S.A. All products were used in accordance with manufacturer's directions. All assays were conducted in triplicate wells, with dimethyl sulfoxide (DMSO) solvent control. The extent of cell growth was expressed as a percentage of the signal from the solvent control wells.
Log-phase cells were trypsinized, collected by centrifugation, and resuspended in a small volume of fresh medium, and the density of viable cells was determined following Trypan Blue staining. Cells were diluted in fresh media (3×10^3 cells/mL for DLD-1), and added at 150 μL/well to 96-well plates, and incubated for several hours to allow attachment in the case of adherent cells. […] After incubation for 10 minutes at room temperature, and the plate was read with a luminometer.

[2] = tested on: MIA PaCa-2 tumor; experiment: MiaPaCa-2 Xenograft Assay, Intraperitoneal Administration; assay type: in vivo, athymic nu/nu mice; conditions: for tumor mass inhibition relative to vehicle: autopsy day 19 after transplantation
Procedure: Male athymic nu/nu mice, 6-8 weeks old (approximately 20 g), were implanted subcutaneously in the right fore flank with 20-30 mg pieces of MIA PaCa-2 tumor harvested from similar nu/nu mice that had previously been implanted with the MIA PaCa-2 tumor. […] A group of mice was treated with compound 1A as the hydrochloride salt dissolved in aqueous 5% dextrose, at 100 mg/Kg by intraperitoneal injection once/day for 5 consecutive days; with vehicle and cyclophosphamide (30 mg/Kg) also administered by intraperitoneal injection for the same time. Tumor mass was estimated from volume on days 10, 13, and 17; and measured at autopsy on day 19 after transplantation.

| SMILES | IC50 [1] [µM] | tumor mass inhibition relative to vehicle ([2]; 100 mg/Kg intraperitoneal once/day for 5 consecutive days, hydrochloride salt) [%] | safety at the dose tested ([2]; nu/nu mice, 100 mg/Kg intraperitoneal once/day for 5 days) | tumor mass inhibition relative to vehicle ([2]; 30 mg/Kg intraperitoneal once/day for 5 consecutive days) [%] |
| --- | --- | --- | --- | --- |
| N[C@@H](CCC(=O)N[C@@H](CS(=O)(=O)CCOP(=O)(N(CCCl)CCCl)N(CCCl)CCCl)C(=O)N[C@@H](C(=O)O)c1ccccc1)C(=O)O [canfosfamide, reference compound] | 11 | – | – | – |
| CCN(CC)CCS(=O)(=O)CCOP(N)(=O)N(CCCl)CCCl (centres unmarked) [compound 1A, 2-{[2-(diethylamino)ethyl]sulfonyl}ethyl N,N-bis(2-chloroethyl)phosphorodiamidate] | 13 | 83 | safe and non-toxic | – |
| O=P1(N(CCCl)CCCl)NCCCO1 (centres unmarked) [cyclophosphamide, reference compound] | – | – | – | 84 |
